Laboratory results taken from PubChem BioAssay AID602437 (Southern Research Specialized Biocontainment Screening …, 2012).
Values joined by “and” are separate entries in the source; they are usually repeats but may differ in a detail not shown here. Identical values can stand only once. Active and inactive are the calls of the source. No rule for the calls is given here.

Experiments:
[1] = test system: M. tuberculosis H37Rv growth inhibition, no glycerol; test: H37Rv growth blockers, purified and synthesized samples, set 8, confirmation (AID 602437); details: for IC50: measured here: IC50 replicates
[2] = as above; details: M. tuberculosis H37Rv growth inhibition, no glycerol; at 100 µM (top of the series)

CC(C)CCNC(=O)CSc1nc2c(c(=O)[nH]1)CCCC2
IC90 [1]: 6.58 µM | IC50 [1]: 4.43 µM

CC1CCCN(C(=O)c2ccc(CNc3c(N4CCCCC4)c(=O)c3=O)cc2)C1 (stereo not given)
IC50 [1]: 5.73 µM

CC1CCCN(C(=O)C2CCC(CNc3c(N4CCCCC4)c(=O)c3=O)CC2)C1 (stereo not given)
IC50 [1]: 34.9 µM

CCOC(=O)CSc1ncnc2c1cnn2-c1ccccc1
IC90 [1]: 9.98 µM | IC50 [1]: 4.02 µM

O=C(NCc1ccc(C(=O)N2CCC(c3ccccc3)CC2)cc1)Nc1ccc(Cl)cc1
IC90 [1]: 92.5 µM | IC50 [1]: 72.2 µM

CC1CC(C)CN(C(=O)C2CCC(CNc3c(N4CCCCC4)c(=O)c3=O)CC2)C1 (stereo not given)
IC50 [1]: 7.79 µM and 24.7 µM

CCC(C)NC(=O)CSc1nc2ccccc2c(=O)[nH]1 (stereo not given)
IC90 [1]: 7.63 µM | IC50 [1]: 4.95 µM

O=C(c1ccc(CNc2c(N3CCOCC3)c(=O)c2=O)cc1)N1CCN(c2ccccc2)CC1
IC50 [1]: 3.8 µM

O=C(NCCc1ccc(Cl)cc1)c1ccc(CNc2c(N3CCOCC3)c(=O)c2=O)cc1
IC50 [1]: 5.66 µM and 14.4 µM

O=C(NCCc1ccc(Cl)cc1)C1CCC(CNc2c(N3CCCCC3)c(=O)c2=O)CC1 (stereo not given)
IC50 [1]: 17.6 µM

O=C(CSc1nc2ccccc2c(=O)[nH]1)NC1CCCCC1
IC90 [1]: < 0.27 µM | IC50 [1]: 0.204 µM

O=C(c1ccc(CNc2c(N3CCCC3)c(=O)c2=O)cc1)N1CCN(c2ccccc2)CC1
IC50 [1]: 70.2 µM

COC(=O)C(Cc1ccccc1)NC(=O)CSc1nc2ccccc2c(=O)[nH]1 (stereo not given)
inhibition [2]: 2.32% (inactive)

CC(C)CCNC(=O)CSc1nc2c(c(=O)[nH]1)CCCCC2
IC50 [1]: 99.2 µM

O=C(CSc1nc2c(c(=O)[nH]1)CCC2)NC1CCCCC1
IC90 [1]: 3.23 µM | IC50 [1]: 2.24 µM

CC(C)OC(=O)CSc1ncnc2c1cnn2-c1ccccc1
IC50 [1]: 12 µM

COc1ccc(NC(=O)NCc2ccc(C(=O)N3CCC(c4ccccc4)CC3)cc2)cc1
inhibition [2]: 14% (inactive)

O=C(C1CCC(CNc2c(N3CCCCC3)c(=O)c2=O)CC1)N1CCCCC1 (stereo not given)
IC50 [1]: 27.5 µM

CC(=O)c1ccc(NC(=O)c2ccc(CNc3c(N4CCOCC4)c(=O)c3=O)cc2)cc1
IC50 [1]: 63.7 µM

COC(=O)CSc1ncnc2c1cnn2-c1ccc(C)cc1C
IC90 [1]: 3.71 µM | IC50 [1]: 2.78 µM

COCCNC(=O)CSc1nc2ccccc2c(=O)[nH]1
inhibition [2]: -10.3% (inactive)

Cc1cccc(N2CCN(C(=O)c3ccc(CNc4c(N5CCC(C)CC5)c(=O)c4=O)cc3)CC2C)c1 (stereo not given)
IC90 [1]: 46.3 µM | IC50 [1]: 27.7 µM

COc1ccc(N2CCN(C(=O)c3ccc(CNC(=O)NCc4ccc(Cl)cc4)cc3)CC2)cc1
inhibition [2]: 2.39% (inactive)

CCOC(=O)CSc1ncnc2c1cnn2-c1ccc(C)cc1C
IC90 [1]: 4.58 µM | IC50 [1]: 2.64 µM

O=C(c1ccc(CNc2c(N3CCCC3)c(=O)c2=O)cc1)N1CC=C(c2ccccc2)CC1
IC50 [1]: 4.52 µM and 4.4 µM

O=C(c1ccc(CNc2c(N3CCOCC3)c(=O)c2=O)cc1)N1CC=C(c2ccccc2)CC1
IC90 [1]: 8.36 µM | IC50 [1]: 1.71 µM

CC(C)CCNC(=O)CSc1nc2ccccc2c(=O)[nH]1
IC90 [1]: 1.01 µM | IC50 [1]: 0.651 µM

CCOC(=O)N1CCC(Nc2c(Nc3cccc(CC)c3)c(=O)c2=O)CC1
IC50 [1]: 36.5 µM

O=C(CSc1nc2c(c(=O)[nH]1)CN(Cc1ccccc1)CC2)NC1CCCCC1
inhibition [2]: -4.57% (inactive)

CC1CC(C)CN(C(=O)c2ccc(CNc3c(N4CCCC4)c(=O)c3=O)cc2)C1 (stereo not given)
IC50 [1]: 12.8 µM

O=C(c1ccc(CNc2c(N3CCCC3)c(=O)c2=O)cc1)N1CCc2ccccc2C1
IC50 [1]: 7.79 µM

CC1CCN(C(=O)c2ccc(CNc3c(N4CCCC4)c(=O)c3=O)cc2)CC1
IC50 [1]: 10.1 µM

O=C(c1ccc(CNc2c(N3CCOCC3)c(=O)c2=O)cc1)N1CCC(c2ccccc2)CC1
IC50 [1]: 3.56 µM

O=C(NCc1ccc(C(=O)N2CCN(c3ccccc3)CC2)cc1)NC1CCCCC1
inhibition [2]: 2.51% (inactive)

O=C(CSc1nc2c(c(=O)[nH]1)CCCC2)NC1CCCCC1
IC90 [1]: 3.45 µM | IC50 [1]: 2.3 µM

O=C(c1ccc(CNc2c(N3CCCC3)c(=O)c2=O)cc1)N1CCC(c2ccccc2)CC1
IC50 [1]: 76.1 µM

CC1CCCN(c2c(NCc3ccc(C(=O)N4CC=C(c5ccccc5)CC4)cc3)c(=O)c2=O)C1 (stereo not given)
IC90 [1]: 9.7 µM | IC50 [1]: 7.72 µM

Cc1cccc(N2CCN(C(=O)c3ccc(CNc4c(N5CCC(C)CC5)c(=O)c4=O)cc3)CC2)c1C
IC90 [1]: 56.9 µM | IC50 [1]: 42.1 µM

O=C(CSc1nc2ccccc2c(=O)[nH]1)NC1CCOCC1
IC90 [1]: 33.8 µM | IC50 [1]: 20.5 µM

COc1ccc(N2CCN(C(=O)c3ccc(CNc4c(N5CCCC(C)C5)c(=O)c4=O)cc3)CC2)cc1 (stereo not given)
IC90 [1]: 41.4 µM | IC50 [1]: 25.4 µM

CCOc1ccc(NC(=O)c2ccc(CNc3c(N4CCCC4)c(=O)c3=O)cc2)cc1
inhibition [2]: -0.36% (inactive)

COc1ccc(N2CCN(C(=O)c3ccc(CNc4c(N5CCOCC5)c(=O)c4=O)cc3)CC2)cc1
IC50 [1]: 8.95 µM and 8.65 µM

O=C(NCc1ccc(C(=O)N2CCC(c3ccccc3)CC2)cc1)NC1CCCCC1
IC90 [1]: 86.4 µM | IC50 [1]: 67.7 µM
